The values below come from patent US11547697B2, “Heterocyclic compounds and uses thereof” (MILLENNIUM PHARMACEUTICALS, INC., priority 2009, dated 2023).

Assay type in all cases: biochemical
In assay [1] the target is p110α/p85α (Homo sapiens (Human), UniProt P42336). The experiment in a line: PI 3-Kinase (human) HTRF assay, p110α/p85α. Conditions: read-out: PI3K α IC50. In general terms: In TR-FRET formats the signal depends on donor and acceptor labels being close together.
The target of assay [2] is p110γ (Homo sapiens (Human), UniProt P48736). Description: PI 3-Kinase (human) HTRF assay, p110γ. Conditions: read-out: PI3K γ IC50.
Sequence of p110γ (P48736 whole entry): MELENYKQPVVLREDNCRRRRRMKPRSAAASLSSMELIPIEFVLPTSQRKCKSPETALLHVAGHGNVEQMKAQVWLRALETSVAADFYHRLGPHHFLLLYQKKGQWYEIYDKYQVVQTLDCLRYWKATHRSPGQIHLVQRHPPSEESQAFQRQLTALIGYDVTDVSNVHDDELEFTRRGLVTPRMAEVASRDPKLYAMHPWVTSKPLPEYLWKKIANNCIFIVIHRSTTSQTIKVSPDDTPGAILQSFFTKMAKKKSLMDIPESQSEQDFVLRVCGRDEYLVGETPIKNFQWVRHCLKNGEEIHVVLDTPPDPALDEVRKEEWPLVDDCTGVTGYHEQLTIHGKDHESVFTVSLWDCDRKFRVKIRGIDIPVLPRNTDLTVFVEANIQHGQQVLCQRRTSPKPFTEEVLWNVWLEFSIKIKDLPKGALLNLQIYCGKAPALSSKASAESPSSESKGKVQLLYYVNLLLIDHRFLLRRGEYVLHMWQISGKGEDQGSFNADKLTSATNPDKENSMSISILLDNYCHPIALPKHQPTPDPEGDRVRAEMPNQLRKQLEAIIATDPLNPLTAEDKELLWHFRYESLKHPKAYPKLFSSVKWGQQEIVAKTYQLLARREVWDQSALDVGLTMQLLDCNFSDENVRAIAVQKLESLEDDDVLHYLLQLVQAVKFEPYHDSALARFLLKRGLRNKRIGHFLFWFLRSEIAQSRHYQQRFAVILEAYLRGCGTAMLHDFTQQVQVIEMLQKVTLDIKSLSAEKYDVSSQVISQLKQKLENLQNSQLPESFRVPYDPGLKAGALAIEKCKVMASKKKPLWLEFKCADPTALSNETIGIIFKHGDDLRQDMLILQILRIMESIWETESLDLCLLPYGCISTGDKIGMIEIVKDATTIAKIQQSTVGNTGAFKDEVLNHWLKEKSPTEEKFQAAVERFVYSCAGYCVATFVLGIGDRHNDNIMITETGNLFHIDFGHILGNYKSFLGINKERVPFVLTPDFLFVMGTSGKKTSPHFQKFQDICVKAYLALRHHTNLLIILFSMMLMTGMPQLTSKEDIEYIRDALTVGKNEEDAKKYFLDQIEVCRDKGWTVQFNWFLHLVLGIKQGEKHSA
Assay [3] concerns the target p110δ/p85α (Homo sapiens (Human), UniProt O00329). The experiment in a line: PI 3-Kinase (human) HTRF assay, p110δ/p85α. Conditions: read-out: PI3K δ IC50.
The target in assay [4] is p110β/p85α (Homo sapiens (Human), UniProt P42338). The experiment in a line: PI 3-Kinase (human) HTRF assay, p110β/p85α. Conditions: in vitro; read-out: PI3K β IC50.
Sequence of p110β/p85α (P42338 whole entry): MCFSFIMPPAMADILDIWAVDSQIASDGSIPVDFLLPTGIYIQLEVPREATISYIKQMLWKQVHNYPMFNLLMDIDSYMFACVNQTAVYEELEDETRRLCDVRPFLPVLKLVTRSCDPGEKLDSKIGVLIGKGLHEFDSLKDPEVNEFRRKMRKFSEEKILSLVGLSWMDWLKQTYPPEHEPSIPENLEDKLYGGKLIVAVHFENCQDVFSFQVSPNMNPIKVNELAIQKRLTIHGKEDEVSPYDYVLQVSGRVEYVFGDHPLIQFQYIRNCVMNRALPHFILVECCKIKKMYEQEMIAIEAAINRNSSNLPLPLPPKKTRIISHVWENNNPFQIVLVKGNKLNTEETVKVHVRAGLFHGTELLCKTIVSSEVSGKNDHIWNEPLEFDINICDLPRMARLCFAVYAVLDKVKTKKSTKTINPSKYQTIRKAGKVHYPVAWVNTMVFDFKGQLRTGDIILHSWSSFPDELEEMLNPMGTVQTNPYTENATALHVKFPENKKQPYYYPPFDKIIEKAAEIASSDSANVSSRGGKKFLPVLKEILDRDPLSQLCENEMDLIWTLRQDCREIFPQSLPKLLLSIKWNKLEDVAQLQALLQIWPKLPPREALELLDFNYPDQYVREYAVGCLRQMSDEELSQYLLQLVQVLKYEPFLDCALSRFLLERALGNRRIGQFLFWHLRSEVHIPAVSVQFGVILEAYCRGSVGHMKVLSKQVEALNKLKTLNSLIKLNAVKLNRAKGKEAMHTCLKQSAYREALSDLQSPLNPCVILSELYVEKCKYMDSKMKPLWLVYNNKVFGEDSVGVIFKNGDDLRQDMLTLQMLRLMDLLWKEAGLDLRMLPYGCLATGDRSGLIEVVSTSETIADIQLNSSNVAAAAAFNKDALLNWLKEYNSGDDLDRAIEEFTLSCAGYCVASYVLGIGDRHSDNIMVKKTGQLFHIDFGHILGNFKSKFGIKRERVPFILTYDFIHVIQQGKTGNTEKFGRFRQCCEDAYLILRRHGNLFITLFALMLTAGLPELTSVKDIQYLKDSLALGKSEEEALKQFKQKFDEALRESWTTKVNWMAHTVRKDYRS
Sequence of p110β/p85α (P27986 whole entry partner): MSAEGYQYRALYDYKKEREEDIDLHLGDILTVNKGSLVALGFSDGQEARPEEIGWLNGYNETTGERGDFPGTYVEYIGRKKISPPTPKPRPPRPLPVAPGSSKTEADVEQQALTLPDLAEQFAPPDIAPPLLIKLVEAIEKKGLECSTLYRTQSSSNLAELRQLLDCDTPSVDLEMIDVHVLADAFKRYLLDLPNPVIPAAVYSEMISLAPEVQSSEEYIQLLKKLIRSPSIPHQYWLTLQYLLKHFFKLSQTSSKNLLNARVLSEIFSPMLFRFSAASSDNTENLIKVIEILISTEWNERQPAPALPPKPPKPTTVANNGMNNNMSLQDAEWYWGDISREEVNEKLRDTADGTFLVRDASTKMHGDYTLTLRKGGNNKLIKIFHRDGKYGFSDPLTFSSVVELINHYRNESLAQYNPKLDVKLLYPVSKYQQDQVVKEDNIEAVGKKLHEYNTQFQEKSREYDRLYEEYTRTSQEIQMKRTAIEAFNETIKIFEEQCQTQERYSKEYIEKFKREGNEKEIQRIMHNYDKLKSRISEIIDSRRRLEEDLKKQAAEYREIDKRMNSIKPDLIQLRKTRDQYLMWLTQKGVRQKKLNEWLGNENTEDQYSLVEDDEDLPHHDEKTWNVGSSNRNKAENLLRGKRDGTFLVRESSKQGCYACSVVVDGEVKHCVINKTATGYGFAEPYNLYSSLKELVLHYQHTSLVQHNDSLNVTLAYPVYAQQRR
Procedure: An exemplary system is PI 3-Kinase (human) HTRF™ Assay from Upstate. […] Briefly, the assay is a time resolved FRET assay that indirectly measures PIP3 product formed by the activity of a PI3-K. The kinase reaction is performed in a microtitre plate (e.g., a 384 well microtitre plate). The total reaction volume is approximately 20 ul per well. In the first step, each well receives 2 ul of test compound in 20% dimethylsulphoxide resulting in a 2% DMSO final concentration. Next, approximately 14.5 ul of a kinase/PIP2 mixture (diluted in 1× reaction buffer) is added per well for a final concentration of 0.25-0.3 ug/ml kinase and 10 μM PIP2. The plate is sealed and incubated for 15 minutes at room temperature. To start the reaction, 3.5 ul of ATP (diluted in 1× reaction buffer) is added per well for a final concentration of 10 μM ATP. The plate is sealed and incubated for 1 hour at room temperature. The reaction is stopped by adding 5 ul of Stop Solution per well and then 5 ul of Detection Mix is added per well. The plate is sealed, incubated for 1 hour at room temperature, and then read on an appropriate plate reader. Data is analyzed and IC50s are generated using GraphPad Prism 5. […] For PI3K α, β, δ, and γ, the nM concentration of inhibitor to reach IC50 is provided.

Where two headings read alike, the source gives them in different places.

Sequence of p110α/p85α (P42336 whole entry): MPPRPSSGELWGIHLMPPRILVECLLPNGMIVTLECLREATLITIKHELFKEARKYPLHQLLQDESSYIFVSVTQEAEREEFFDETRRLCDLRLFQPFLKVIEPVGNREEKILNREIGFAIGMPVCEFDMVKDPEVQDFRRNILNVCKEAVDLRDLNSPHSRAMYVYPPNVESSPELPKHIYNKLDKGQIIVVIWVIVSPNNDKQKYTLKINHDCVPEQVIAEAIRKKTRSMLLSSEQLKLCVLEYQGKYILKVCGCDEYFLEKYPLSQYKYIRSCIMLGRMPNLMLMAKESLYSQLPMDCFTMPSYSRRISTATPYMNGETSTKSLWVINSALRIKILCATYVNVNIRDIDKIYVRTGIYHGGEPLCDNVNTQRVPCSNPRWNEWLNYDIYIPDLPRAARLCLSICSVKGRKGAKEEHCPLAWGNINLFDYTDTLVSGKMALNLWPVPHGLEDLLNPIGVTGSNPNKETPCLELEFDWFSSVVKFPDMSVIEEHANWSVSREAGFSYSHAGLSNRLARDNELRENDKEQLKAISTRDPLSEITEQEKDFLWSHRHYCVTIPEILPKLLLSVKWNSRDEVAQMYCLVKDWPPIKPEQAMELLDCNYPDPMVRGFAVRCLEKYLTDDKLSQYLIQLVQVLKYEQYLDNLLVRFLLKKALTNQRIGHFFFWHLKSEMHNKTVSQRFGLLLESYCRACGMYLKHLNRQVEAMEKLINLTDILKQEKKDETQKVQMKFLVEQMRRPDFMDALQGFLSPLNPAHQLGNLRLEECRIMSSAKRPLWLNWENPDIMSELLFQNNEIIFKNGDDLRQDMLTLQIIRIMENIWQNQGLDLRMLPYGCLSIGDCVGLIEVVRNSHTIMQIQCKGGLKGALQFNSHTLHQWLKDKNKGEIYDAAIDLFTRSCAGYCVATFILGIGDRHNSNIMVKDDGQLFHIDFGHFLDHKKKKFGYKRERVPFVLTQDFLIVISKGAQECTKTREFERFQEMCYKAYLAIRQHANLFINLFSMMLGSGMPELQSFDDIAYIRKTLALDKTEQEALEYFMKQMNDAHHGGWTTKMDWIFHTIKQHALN
Sequence of p110α/p85α (P27986 whole entry partner): as the sequence (P27986 whole entry partner) above
Sequence of p110δ/p85α (O00329 whole entry): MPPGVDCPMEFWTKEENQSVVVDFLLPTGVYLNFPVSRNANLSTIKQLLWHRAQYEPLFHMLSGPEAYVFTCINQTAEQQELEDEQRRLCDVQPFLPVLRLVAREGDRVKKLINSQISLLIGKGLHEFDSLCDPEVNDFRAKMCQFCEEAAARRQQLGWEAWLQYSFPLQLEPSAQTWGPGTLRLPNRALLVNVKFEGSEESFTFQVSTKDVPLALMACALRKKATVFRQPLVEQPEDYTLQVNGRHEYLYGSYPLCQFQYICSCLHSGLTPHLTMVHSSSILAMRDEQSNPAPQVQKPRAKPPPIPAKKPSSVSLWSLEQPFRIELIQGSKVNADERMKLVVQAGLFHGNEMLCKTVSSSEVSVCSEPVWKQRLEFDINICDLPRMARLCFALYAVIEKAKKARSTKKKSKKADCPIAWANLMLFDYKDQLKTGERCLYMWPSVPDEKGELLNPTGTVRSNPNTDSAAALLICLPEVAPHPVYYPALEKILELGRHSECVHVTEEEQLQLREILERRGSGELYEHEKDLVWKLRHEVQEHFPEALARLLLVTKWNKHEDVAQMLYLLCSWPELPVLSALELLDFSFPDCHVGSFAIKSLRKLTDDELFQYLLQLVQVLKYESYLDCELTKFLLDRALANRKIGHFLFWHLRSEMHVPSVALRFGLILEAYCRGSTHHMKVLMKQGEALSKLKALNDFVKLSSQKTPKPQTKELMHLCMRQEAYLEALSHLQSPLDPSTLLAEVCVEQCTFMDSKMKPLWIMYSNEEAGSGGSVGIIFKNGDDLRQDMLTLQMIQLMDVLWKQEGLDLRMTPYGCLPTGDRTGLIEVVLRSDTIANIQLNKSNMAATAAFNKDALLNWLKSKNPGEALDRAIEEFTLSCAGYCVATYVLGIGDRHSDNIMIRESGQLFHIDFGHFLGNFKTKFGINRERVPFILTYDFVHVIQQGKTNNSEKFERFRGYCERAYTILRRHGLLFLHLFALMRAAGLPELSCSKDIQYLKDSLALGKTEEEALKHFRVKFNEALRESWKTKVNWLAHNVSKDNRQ
Sequence of p110δ/p85α (P27986 whole entry partner): as the sequence (P27986 whole entry partner) above

On to `Nc1nc2cc(-c3ccc4nccc(CCN5CCOCC5)c4c3)ccc2o1` [compound 27], for which the IC50 in assay [1] is less than 1000 nM; in assay [2] it was less than 100 nM; in assay [3], less than 10000 nM.

As to `Nc1nc2cc(-c3ccc4nccc(N5CCOCC5)c4c3)ccc2o1` [compound 28], the IC50 in assay [1] was less than 100 nM; in assay [2], less than 100 nM; in assay [3] it was less than 1000 nM.

Regarding `Nc1nc2cc(-c3ccc4ncnc(N5CCC(O)CC5)c4c3)ccc2o1` [compound 29], the IC50 in assay [1], in assay [2] and in assay [3] was less than 100 nM each time.

As to `CN1CCN(c2cc(-c3ccnc4ccc(-c5ccc6oc(N)nc6c5)cc34)ccn2)CC1` [compound 30], the IC50 in assay [1], in assay [2] and in assay [3] was less than 100 nM throughout.

As to `Nc1nc2cc(-c3ccc4nccc(-c5cccnc5)c4c3)ccc2o1` [compound 31], the IC50 in assay [1], in assay [2] and in assay [3] was less than 100 nM in each case.

Consider `Nc1nc2cc(-c3ccc4nccc(NCCN5CCOCC5)c4c3)ccc2o1` [compound 33], for which the IC50 was less than 100 nM in assay [1], less than 1000 nM in assay [2] and less than 1000 nM in assay [3].

For `CN1CCC(Oc2ncnc3ccc(-c4ccc5oc(N)nc5c4)cc23)CC1` [compound 34], the IC50 in assay [1] is less than 100 nM; in assay [2] it was less than 100 nM; in assay [3], less than 1000 nM.

`Nc1nc2cc(-c3ccc4ncc(-c5cccnc5)n4c3)ccc2o1` [compound 37]: the IC50 in assay [1], in assay [2] and in assay [3] was less than 100 nM each time.

Regarding `Nc1nc2cc(-c3ccc4ncc(-c5cn[nH]c5)n4c3)ccc2o1` [compound 38], the IC50 in assay [1], in assay [2] and in assay [3] was less than 100 nM throughout.

Take `Nc1nc2cc(-c3ccc4ncc(C#CC5CC5)n4c3)ccc2o1` [compound 39]: the IC50 in assay [1], in assay [2] and in assay [3] was less than 100 nM each time.

As to `CN1CCN(c2cc(-c3cnc4ccc(-c5ccc6oc(N)nc6c5)cn34)ccn2)CC1` [compound 43], the IC50 in assay [1], in assay [2] and in assay [3] was less than 100 nM each time.

`Nc1nc2ccc(-c3ccc4ncc(C(=O)N5CCOCC5)n4c3)cc2s1` [compound 125]: the values for the IC50 in assay [1], in assay [2] and in assay [3] were less than 1000 nM, less than 1000 nM and less than 10000 nM, respectively.

`Nc1nc2cc(-c3ccc4ncc(C(=O)Nc5cccnc5)n4c3)ccc2o1` [compound 190]: the IC50 was less than 100 nM in assay [1], less than 100 nM in assay [2] and less than 1000 nM in assay [3].

For the compound `Nc1nc2cc(-c3ccc4ncc(N5CCN(C(=O)C6(N)CC6)CC5)nc4c3)ccc2o1` [compound 226], the IC50 is less than 1000 nM in assay [1] (in vitro), less than 10000 nM in assay [2] (in vitro) and less than 10000 nM in assay [3] (in vitro).

For `CC(=O)Nc1nc2ccc(-c3ccc4nc(N)oc4c3)cc2s1` [compound 242], the IC50 in assay [1] (in vitro), in assay [2] (in vitro) and in assay [4] was less than 100 nM in each case.

Turning to `Nc1nc2ccc(-c3ccc4nc(N)sc4c3)cc2o1` [compound 243], the figures for the IC50 in assay [1] (in vitro), in assay [2] (in vitro) and in assay [4] were less than 1000 nM, less than 100 nM and less than 100 nM, respectively.

Consider `Nc1cn2cc(-c3ccc4oc(N)nc4c3)ccc2n1` [compound 245], for which the IC50 in assay [1] (in vitro) was less than 1000 nM; in assay [2] (in vitro), less than 1000 nM; in assay [4], less than 10000 nM.

In the case of `COCCn1cnc2ccc(-c3ccc4oc(N)nc4c3)cc2c1=O` [compound 272], the IC50 is less than 1000 nM in assay [1] (in vitro), less than 10000 nM in assay [2] (in vitro) and less than 10000 nM in assay [4].

For `CCN(CC)CCCn1cnc2ccc(-c3ccc4oc(N)nc4c3)cc2c1=O` [compound 281], the IC50 in assay [1] (in vitro) was less than 1000 nM; in assay [3] (in vitro), less than 10000 nM.

With `Nc1nc2cc(-c3ccc4ncn(CCN5CCOCC5)c(=O)c4c3)ccc2o1` [compound 289], the figures for the IC50 in assay [1] (in vitro), in assay [2] (in vitro) and in assay [4] were less than 1000 nM, less than 1000 nM and less than 10000 nM, respectively.

For the compound `C[C@H]1CN(c2cnc3ccc(-c4ccc5nc(N)sc5c4)cc3n2)CCN1` [compound 308], the results for the IC50 in assay [1] (in vitro), in assay [2] (in vitro) and in assay [4] were less than 1000 nM, less than 10000 nM and less than 1000 nM, respectively.

For `C[C@H]1CN(c2cnc3ccc(-c4ccc5nc(N)oc5c4)cc3n2)CCN1` [compound 309], the IC50 was less than 1000 nM in assay [1] (in vitro), less than 10000 nM in assay [2] (in vitro) and less than 1000 nM in assay [4].

With `Nc1nc2cc(-c3ccc4ncc(C(=O)N(CCO)CCO)n4c3)ccc2o1` [compound 316], the IC50 in assay [1] (in vitro) is less than 1000 nM; in assay [2] (in vitro) it was less than 10000 nM; in assay [4], less than 10000 nM.

As usually defined, the IC50 is the concentration needed to halve the response being measured.
